Activity calls are given as the source filed them. The calls are words filed in the database; no cut-off is given here.
Tests used:
MDA-MB-468 = test: Cytotoxicity in human MDA-MB-468 cells assessed as reduction in cell viability incubated for 72 hrs by MTT assay; assay type: functional, cell-based
MCF7 = test: Cytotoxicity in human MCF7 cells assessed as reduction in cell viability incubated for 72 hrs by MTT assay; assay type: functional, cell-based
MDA-MB-231 [1] = test: Antiproliferative activity against human MDA-MB-231 cells assessed as cell growth inhibition measured after 72 hrs by MTT assay; assay type: functional, cell-based; conditions: MDA-MB-231, 72 h
cells = conditions: Homo sapiens, YCC-11, 72 h
Description: Cytotoxicity against human HDACi-sensitive YCC-11 cells assessed as reduction in cell growth incubated for 72 hrs by MTS assay

HepG2 = test: cells; conditions: Homo sapiens, HepG2, 72 h
Description: Antiproliferative activity against human HepG2 cells assessed as cell growth inhibition measured after 72 hrs by MTT assay

[2] = Cytotoxicity against human HDACi-sensitive YCC3 cells assessed as reduction in cell growth incubated for 72 hrs by MTS assay; assay type: functional, cell-based; conditions: YCC3/7, 72 h
Histone deacetylase 4 = Histone deacetylase 4 (Homo sapiens, UniProt P56524); test: Inhibition of human recombinant HDAC4 expressed in baculovirus using fluorogenic peptide p53 residues 379-382 (RHKK(Ac)AMC) as substrate by Fluorescence analysis
Histone deacetylase 9 = Histone deacetylase 9 (Homo sapiens, UniProt Q9UKV0); test: Inhibition of human recombinant HDAC9 expressed in baculovirus using fluorogenic peptide p53 residues 379-382 (RHKK(Ac)AMC) as substrate by Fluorescence analysis
Histone deacetylase 5 = Histone deacetylase 5 (Homo sapiens, UniProt Q9UQL6); test: Inhibition of human recombinant HDAC5 expressed in baculovirus using fluorogenic peptide p53 residues 379-382 (RHKK(Ac)AMC) as substrate by Fluorescence analysis
Histone deacetylase 7 = molecular target: T1, Histone deacetylase 7 (Homo sapiens, UniProt Q8WUI4); test: Inhibition of human recombinant HDAC7 expressed in baculovirus using fluorogenic peptide p53 residues 379-382 (RHKK(Ac)AMC) as substrate by Fluorescence analysis
T1 sequence (Q8WUI4 whole entry): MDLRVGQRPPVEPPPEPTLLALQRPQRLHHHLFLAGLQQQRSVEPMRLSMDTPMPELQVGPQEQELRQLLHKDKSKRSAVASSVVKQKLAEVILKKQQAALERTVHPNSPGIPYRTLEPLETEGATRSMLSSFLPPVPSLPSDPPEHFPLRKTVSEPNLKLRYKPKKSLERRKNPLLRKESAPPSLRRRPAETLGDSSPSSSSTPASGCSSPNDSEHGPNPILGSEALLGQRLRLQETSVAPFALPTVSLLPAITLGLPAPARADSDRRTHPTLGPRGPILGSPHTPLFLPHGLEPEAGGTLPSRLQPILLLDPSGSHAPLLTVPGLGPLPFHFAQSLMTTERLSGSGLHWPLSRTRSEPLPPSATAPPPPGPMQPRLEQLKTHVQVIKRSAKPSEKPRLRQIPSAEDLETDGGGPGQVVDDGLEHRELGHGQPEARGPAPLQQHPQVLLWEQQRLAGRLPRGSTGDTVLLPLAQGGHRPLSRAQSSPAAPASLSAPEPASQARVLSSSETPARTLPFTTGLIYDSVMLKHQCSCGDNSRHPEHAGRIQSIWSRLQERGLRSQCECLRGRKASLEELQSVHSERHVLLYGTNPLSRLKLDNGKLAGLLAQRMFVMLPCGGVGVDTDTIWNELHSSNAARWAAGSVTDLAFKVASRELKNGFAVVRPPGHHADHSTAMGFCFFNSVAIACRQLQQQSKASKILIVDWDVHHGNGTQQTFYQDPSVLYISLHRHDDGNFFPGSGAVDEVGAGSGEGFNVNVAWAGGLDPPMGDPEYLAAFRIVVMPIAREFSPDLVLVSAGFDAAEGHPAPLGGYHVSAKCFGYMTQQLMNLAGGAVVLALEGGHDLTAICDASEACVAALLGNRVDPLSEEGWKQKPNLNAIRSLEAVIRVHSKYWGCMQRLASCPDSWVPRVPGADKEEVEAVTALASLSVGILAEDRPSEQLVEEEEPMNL

MDA-MB-231 [3] = test: Induction of apoptosis in human MDA-MB-231 cells assessed as increase in cleaved caspase-8 level incubated for 24 hrs by Western blot analysis; assay type: functional, cell-based
MDA-MB-231 [4] = test: Induction of cell cycle arrest in human MDA-MB-231 cells assessed as reduction in population between G1 to G2/M phases at 4 uM for 24 hrs by PI staining based flow cytometry analysis; assay type: functional
MDA-MB-231 [5] = test: Induction of cell cycle arrest in human MDA-MB-231 cells assessed as reduction in population at S phase at 4 uM for 24 hrs by PI staining based flow cytometry analysis; assay type: functional
MDA-MB-231 [6] = test: Induction of apoptosis in human MDA-MB-231 cells assessed as increase in cleaved PARP-1 level incubated for 24 hrs by Western blot analysis; assay type: functional, cell-based
MDA-MB-231 [7] = test: Induction of apoptosis in human MDA-MB-231 cells assessed as increase in cleaved caspase-3 level incubated for 24 hrs by Western blot analysis; assay type: functional, cell-based
MDA-MB-231 [8] = test: Induction of cell cycle arrest in human MDA-MB-231 cells assessed as accumulation of cells at subG1 phase at 16 uM for 48 hrs by PI staining based flow cytometry analysis; assay type: functional
MDA-MB-231 [9] = test: Induction of cell cycle arrest in human MDA-MB-231 cells assessed as accumulation of cells at G1 phase at 4 uM for 24 hrs in presence of nocodazole by PI staining based flow cytometry analysis; assay type: functional

Chain of Histone deacetylase 9 (Q9UKV0 whole entry, the tested form may be a part): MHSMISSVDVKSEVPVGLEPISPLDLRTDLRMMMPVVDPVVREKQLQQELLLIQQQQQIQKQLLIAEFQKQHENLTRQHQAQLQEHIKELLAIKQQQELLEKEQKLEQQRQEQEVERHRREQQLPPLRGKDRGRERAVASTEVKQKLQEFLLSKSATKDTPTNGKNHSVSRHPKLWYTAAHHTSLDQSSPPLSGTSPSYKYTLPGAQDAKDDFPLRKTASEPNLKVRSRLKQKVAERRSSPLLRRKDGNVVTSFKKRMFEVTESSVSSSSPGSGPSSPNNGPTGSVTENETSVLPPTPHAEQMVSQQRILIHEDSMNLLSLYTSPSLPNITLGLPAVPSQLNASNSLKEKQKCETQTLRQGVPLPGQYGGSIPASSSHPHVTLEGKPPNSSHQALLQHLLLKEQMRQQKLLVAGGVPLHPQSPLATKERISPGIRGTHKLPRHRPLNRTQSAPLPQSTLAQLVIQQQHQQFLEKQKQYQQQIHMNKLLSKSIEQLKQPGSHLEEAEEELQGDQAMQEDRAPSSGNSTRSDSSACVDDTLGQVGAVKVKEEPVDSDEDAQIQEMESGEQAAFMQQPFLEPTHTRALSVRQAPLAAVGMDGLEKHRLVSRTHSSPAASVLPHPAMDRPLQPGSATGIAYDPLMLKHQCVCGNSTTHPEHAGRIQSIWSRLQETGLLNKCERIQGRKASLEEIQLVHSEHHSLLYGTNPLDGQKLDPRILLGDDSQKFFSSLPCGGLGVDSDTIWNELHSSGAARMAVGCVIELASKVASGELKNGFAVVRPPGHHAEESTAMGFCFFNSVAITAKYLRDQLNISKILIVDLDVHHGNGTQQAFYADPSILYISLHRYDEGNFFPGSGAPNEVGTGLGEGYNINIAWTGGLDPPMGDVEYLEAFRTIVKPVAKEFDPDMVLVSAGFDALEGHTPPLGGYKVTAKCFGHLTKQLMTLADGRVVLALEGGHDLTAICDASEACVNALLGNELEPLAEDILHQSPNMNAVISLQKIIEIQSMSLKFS
Chain of Histone deacetylase 5 (Q9UQL6 whole entry, the tested form may be a part): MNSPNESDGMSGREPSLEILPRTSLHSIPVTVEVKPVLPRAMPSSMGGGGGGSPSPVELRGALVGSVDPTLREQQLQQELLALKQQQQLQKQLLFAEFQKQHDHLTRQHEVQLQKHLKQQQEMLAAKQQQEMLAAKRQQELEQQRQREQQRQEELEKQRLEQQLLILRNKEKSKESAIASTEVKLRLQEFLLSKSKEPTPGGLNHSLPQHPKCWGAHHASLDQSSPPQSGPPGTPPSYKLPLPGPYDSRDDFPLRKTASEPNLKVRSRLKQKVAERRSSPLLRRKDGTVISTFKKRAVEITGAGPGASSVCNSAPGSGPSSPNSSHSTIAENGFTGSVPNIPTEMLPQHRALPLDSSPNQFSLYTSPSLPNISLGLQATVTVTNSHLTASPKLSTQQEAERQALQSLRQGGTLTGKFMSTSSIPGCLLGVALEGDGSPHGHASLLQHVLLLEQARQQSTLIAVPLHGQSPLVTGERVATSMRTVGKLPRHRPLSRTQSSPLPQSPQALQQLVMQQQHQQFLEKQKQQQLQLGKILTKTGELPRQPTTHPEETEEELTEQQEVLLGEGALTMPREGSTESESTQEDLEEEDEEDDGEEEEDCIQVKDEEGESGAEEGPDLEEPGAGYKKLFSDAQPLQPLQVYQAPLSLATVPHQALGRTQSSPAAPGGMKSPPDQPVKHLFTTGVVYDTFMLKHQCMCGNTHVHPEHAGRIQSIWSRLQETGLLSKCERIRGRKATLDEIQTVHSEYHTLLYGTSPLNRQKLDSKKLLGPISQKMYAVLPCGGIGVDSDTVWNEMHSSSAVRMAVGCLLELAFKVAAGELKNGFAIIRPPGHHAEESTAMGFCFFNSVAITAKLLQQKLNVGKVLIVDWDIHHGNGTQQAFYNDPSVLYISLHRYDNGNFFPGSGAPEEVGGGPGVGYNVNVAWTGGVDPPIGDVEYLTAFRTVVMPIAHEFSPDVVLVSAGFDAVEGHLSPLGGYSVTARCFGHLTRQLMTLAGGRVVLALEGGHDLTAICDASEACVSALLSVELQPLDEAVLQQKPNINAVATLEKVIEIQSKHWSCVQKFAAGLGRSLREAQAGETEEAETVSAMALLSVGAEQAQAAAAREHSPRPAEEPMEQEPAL
Chain of Histone deacetylase 4 (P56524 whole entry, the tested form may be a part): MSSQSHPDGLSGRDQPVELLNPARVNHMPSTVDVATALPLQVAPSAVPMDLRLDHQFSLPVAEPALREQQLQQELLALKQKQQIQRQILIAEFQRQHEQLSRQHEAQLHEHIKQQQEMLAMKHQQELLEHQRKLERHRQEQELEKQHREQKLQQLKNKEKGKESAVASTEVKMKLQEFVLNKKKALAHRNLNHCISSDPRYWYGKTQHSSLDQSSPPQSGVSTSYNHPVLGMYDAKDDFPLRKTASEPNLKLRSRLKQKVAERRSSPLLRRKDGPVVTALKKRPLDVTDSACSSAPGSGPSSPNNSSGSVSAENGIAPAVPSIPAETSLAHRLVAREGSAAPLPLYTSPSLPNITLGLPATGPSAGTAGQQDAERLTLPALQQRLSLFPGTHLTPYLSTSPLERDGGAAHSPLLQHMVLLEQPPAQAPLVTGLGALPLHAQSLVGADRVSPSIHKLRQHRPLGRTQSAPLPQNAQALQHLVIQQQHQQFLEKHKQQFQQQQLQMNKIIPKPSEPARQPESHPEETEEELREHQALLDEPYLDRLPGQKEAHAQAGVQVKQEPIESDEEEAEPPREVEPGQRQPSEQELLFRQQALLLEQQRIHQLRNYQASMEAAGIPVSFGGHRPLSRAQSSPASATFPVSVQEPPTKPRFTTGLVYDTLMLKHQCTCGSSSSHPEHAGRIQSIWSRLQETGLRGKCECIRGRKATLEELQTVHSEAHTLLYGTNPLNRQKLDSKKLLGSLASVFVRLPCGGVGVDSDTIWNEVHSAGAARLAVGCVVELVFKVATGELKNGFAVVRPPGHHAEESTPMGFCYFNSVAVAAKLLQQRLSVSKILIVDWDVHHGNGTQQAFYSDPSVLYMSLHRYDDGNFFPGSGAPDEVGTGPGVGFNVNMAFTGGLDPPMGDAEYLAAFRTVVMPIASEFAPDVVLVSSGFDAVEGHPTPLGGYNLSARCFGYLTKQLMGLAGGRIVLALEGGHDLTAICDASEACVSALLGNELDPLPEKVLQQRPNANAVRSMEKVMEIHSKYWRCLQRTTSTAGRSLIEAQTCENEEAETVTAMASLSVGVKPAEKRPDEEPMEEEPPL

| SMILES | Activity (MDA-MB-468) | Activity (MCF7) | IC50 (MDA-MB-231 [1]) [µM] | IC50 (cells) [µM] | IC50 (HepG2) [µM] | IC50 [2] [µM] | IC50 (Histone deacetylase 4) [µM] | IC50 (Histone deacetylase 9) [µM] | IC50 (Histone deacetylase 5) [µM] | IC50 (Histone deacetylase 7) [µM] | Activity (MDA-MB-231 [3]) | Activity (MDA-MB-231 [4]) | Activity (MDA-MB-231 [5]) | Activity (MDA-MB-231 [6]) | Activity (MDA-MB-231 [7]) | Activity (MDA-MB-231 [8]) | Activity (MDA-MB-231 [9]) |
| --- | --- | --- | --- | --- | --- | --- | --- | --- | --- | --- | --- | --- | --- | --- | --- | --- | --- |
| Nc1ccc(F)cc1NC(=O)c1ccc(CNC(=O)/C=C/c2cccnc2)cc1 | Active | Active | 3.6 | 17.1 | > 8 | 20.4 | – | – | – | – | – | – | – | – | – | – | – |
| Nc1nc(Nc2ccc(F)c(Cl)c2)c2ncn(Cc3ccc(C(=O)Nc4ccccc4N)cc3)c2n1 | – | – | – | – | – | – | > 10 | > 10 | > 10 | > 10 | – | – | – | – | – | – | – |
| Nc1ccccc1NC(=O)c1ccc(CNC(=O)OCc2cccnc2)cc1 [ENTINOSTAT] | Active | Active | – | – | 4.54 | 13 | – | – | – | – | Active | Active | Active | Active | Active | Active | Active |

— ChEMBL document CHEMBL4765296, “Purine/purine isoster based scaffolds as new derivatives of benzamide class of HDAC inhibitors” (Eur J Med Chem, 2020)
